# Experimental data as given in PubChem BioAssay (NCI).
#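 96-well plates; 48 h exposure; 5 concentrations. Endpoints by linear interpolation between flanking doses. Not reached: highest tested concentration assigned. TGI: total growth inhibition.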
# Legend:
# Assay in all cases: NCI anticancer screen, dose series, 48 h
# 786-0 renal = tested on: 786-0 renal
# A498 renal = tested on: A498 renal
# A549 NSCLC = tested on: A549 NSCLC
# ACHN renal = tested on: ACHN renal
# BT-549 breast = tested on: BT-549 breast
# CAKI-1 renal = tested on: CAKI-1 renal
# CCRF-CEM leukemia = tested on: CCRF-CEM leukemia
# COLO 205 colon = tested on: COLO 205 colon
# DU-145 prostate = tested on: DU-145 prostate
# EKVX NSCLC = tested on: EKVX NSCLC
# HCC-2998 colon = tested on: HCC-2998 colon
# HCT-116 colon = tested on: HCT-116 colon
# HCT-15 colon = tested on: HCT-15 colon
# HL-60(TB) leukemia = tested on: HL-60(TB) leukemia
# HOP-62 NSCLC = tested on: HOP-62 NSCLC
# HOP-92 NSCLC = tested on: HOP-92 NSCLC
# HS 578T breast = tested on: HS 578T breast
# HT29 colon = tested on: HT29 colon
# IGROV1 ovarian = tested on: IGROV1 ovarian
# K-562 leukemia = tested on: K-562 leukemia
# KM12 colon = tested on: KM12 colon
# LOX IMVI melanoma = tested on: LOX IMVI melanoma
# M14 melanoma = tested on: M14 melanoma
# MCF7 breast = tested on: MCF7 breast
# MDA-MB-231 breast = tested on: MDA-MB-231 breast
# MDA-MB-435 = tested on: MDA-MB-435
# MDA-N = tested on: MDA-N
# MOLT-4 leukemia = tested on: MOLT-4 leukemia
# NCI-H460 lung = tested on: NCI-H460 lung
# NCI/ADR-RES ovarian = tested on: NCI/ADR-RES ovarian
# OVCAR-3 ovarian = tested on: OVCAR-3 ovarian
# OVCAR-4 ovarian = tested on: OVCAR-4 ovarian
# OVCAR-5 ovarian = tested on: OVCAR-5 ovarian
# OVCAR-8 ovarian = tested on: OVCAR-8 ovarian
# PC-3 prostate = tested on: PC-3 prostate
# RPMI-8226 leukemia = tested on: RPMI-8226 leukemia
# SF-268 CNS = tested on: SF-268 CNS
# SF-295 CNS = tested on: SF-295 CNS
# SF-539 CNS = tested on: SF-539 CNS
# SK-MEL-2 melanoma = tested on: SK-MEL-2 melanoma
# SK-MEL-28 melanoma = tested on: SK-MEL-28 melanoma
# SK-MEL-5 melanoma = tested on: SK-MEL-5 melanoma
# SK-OV-3 ovarian = tested on: SK-OV-3 ovarian
# SN12C renal = tested on: SN12C renal
# SNB-19 CNS = tested on: SNB-19 CNS
# SR leukemia = tested on: SR leukemia
# SW-620 colon = tested on: SW-620 colon
# T-47D breast = tested on: T-47D breast
# TK-10 renal = tested on: TK-10 renal
# U251 CNS = tested on: U251 CNS
# UACC-257 melanoma = tested on: UACC-257 melanoma
# UACC-62 melanoma = tested on: UACC-62 melanoma
# UO-31 renal = tested on: UO-31 renal
# MALME-3M melanoma = tested on: MALME-3M melanoma
# NCI-H23 lung = tested on: NCI-H23 lung
# NCI-H522 lung = tested on: NCI-H522 lung
# RXF 393 renal = tested on: RXF 393 renal
# SNB-75 CNS = tested on: SNB-75 CNS
# NCI-H226 lung = tested on: NCI-H226 lung
smiles,measurement,setting,value
COc1nc(-c2c[nH]c3ccccc23)cnc1N,TGI,786-0 renal,36.4 µM
same,TGI,A498 renal,38.5 µM
same,TGI,A549 NSCLC,> 100 µM
same,TGI,ACHN renal,> 100 µM
same,TGI,BT-549 breast,> 100 µM
same,TGI,CAKI-1 renal,> 100 µM
same,TGI,CCRF-CEM leukemia,14.8 µM
same,TGI,COLO 205 colon,> 100 µM
same,TGI,DU-145 prostate,70.1 µM
same,TGI,EKVX NSCLC,61.5 µM
same,TGI,HCC-2998 colon,> 100 µM
same,TGI,HCT-116 colon,55.7 µM
same,TGI,HCT-15 colon,> 100 µM
same,TGI,HL-60(TB) leukemia,31.5 µM
same,TGI,HOP-62 NSCLC,> 100 µM
same,TGI,HOP-92 NSCLC,23.9 µM
same,TGI,HS 578T breast,54.2 µM
same,TGI,HT29 colon,46.2 µM
same,TGI,IGROV1 ovarian,> 100 µM
same,TGI,K-562 leukemia,> 100 µM
same,TGI,KM12 colon,> 100 µM
same,TGI,LOX IMVI melanoma,> 100 µM
same,TGI,M14 melanoma,94.8 µM
same,TGI,MCF7 breast,84.1 µM
same,TGI,MDA-MB-231 breast,59.1 µM
same,TGI,MDA-MB-435,> 100 µM
same,TGI,MDA-N,48.9 µM
same,TGI,MOLT-4 leukemia,54.9 µM
same,TGI,NCI-H460 lung,> 100 µM
same,TGI,NCI/ADR-RES ovarian,> 100 µM
same,TGI,OVCAR-3 ovarian,> 100 µM
same,TGI,OVCAR-4 ovarian,> 100 µM
same,TGI,OVCAR-5 ovarian,> 100 µM
same,TGI,OVCAR-8 ovarian,> 100 µM
same,TGI,PC-3 prostate,> 100 µM
same,TGI,RPMI-8226 leukemia,39.6 µM
same,TGI,SF-268 CNS,> 100 µM
same,TGI,SF-295 CNS,> 100 µM
same,TGI,SF-539 CNS,> 100 µM
same,TGI,SK-MEL-2 melanoma,81.6 µM
same,TGI,SK-MEL-28 melanoma,64.6 µM
same,TGI,SK-MEL-5 melanoma,> 100 µM
same,TGI,SK-OV-3 ovarian,> 100 µM
same,TGI,SN12C renal,43.5 µM
same,TGI,SNB-19 CNS,> 100 µM
same,TGI,SR leukemia,41.1 µM
same,TGI,SW-620 colon,> 100 µM
same,TGI,T-47D breast,82.8 µM
same,TGI,TK-10 renal,> 100 µM
same,TGI,U251 CNS,> 100 µM
same,TGI,UACC-257 melanoma,51.7 µM
same,TGI,UACC-62 melanoma,33.1 µM
same,TGI,UO-31 renal,> 100 µM
CCNCCCNc1c2ccccc2nc2ccccc12,TGI,786-0 renal,5.39 µM
same,TGI,A498 renal,3.2 µM
same,TGI,A549 NSCLC,3.38 µM
same,TGI,ACHN renal,0.47 µM
same,TGI,BT-549 breast,10.5 µM
same,TGI,CAKI-1 renal,1.23 µM
same,TGI,CCRF-CEM leukemia,10.1 µM
same,TGI,COLO 205 colon,0.761 µM
same,TGI,DU-145 prostate,4.01 µM
same,TGI,EKVX NSCLC,21.2 µM
same,TGI,HCC-2998 colon,0.643 µM
same,TGI,HCT-116 colon,8.36 µM
same,TGI,HCT-15 colon,1.54 µM
same,TGI,HL-60(TB) leukemia,54.9 µM
same,TGI,HOP-62 NSCLC,2.37 µM
same,TGI,HOP-92 NSCLC,3.11 µM
same,TGI,HS 578T breast,3.13 µM
same,TGI,HT29 colon,> 100 µM
same,TGI,IGROV1 ovarian,4.3 µM
same,TGI,K-562 leukemia,1.64 µM
same,TGI,KM12 colon,2.04 µM
same,TGI,LOX IMVI melanoma,1.08 µM
same,TGI,M14 melanoma,0.95 µM
same,TGI,MALME-3M melanoma,2.26 µM
same,TGI,MCF7 breast,0.625 µM
same,TGI,MDA-MB-231 breast,2.5 µM
same,TGI,MDA-MB-435,1.77 µM
same,TGI,MDA-N,1.26 µM
same,TGI,MOLT-4 leukemia,> 100 µM
same,TGI,NCI-H23 lung,2.14 µM
same,TGI,NCI-H460 lung,0.585 µM
same,TGI,NCI-H522 lung,0.7 µM
same,TGI,NCI/ADR-RES ovarian,10.2 µM
same,TGI,OVCAR-3 ovarian,2 µM
same,TGI,OVCAR-4 ovarian,3.2 µM
same,TGI,OVCAR-5 ovarian,1.04 µM
same,TGI,OVCAR-8 ovarian,3.7 µM
same,TGI,PC-3 prostate,0.816 µM
same,TGI,RXF 393 renal,2.83 µM
same,TGI,SF-268 CNS,4.47 µM
same,TGI,SF-295 CNS,2.81 µM
same,TGI,SF-539 CNS,1.21 µM
same,TGI,SK-MEL-2 melanoma,1.95 µM
same,TGI,SK-MEL-28 melanoma,1.48 µM
same,TGI,SK-MEL-5 melanoma,1.47 µM
same,TGI,SK-OV-3 ovarian,6.55 µM
same,TGI,SN12C renal,2.2 µM
same,TGI,SNB-19 CNS,2.98 µM
same,TGI,SNB-75 CNS,1.58 µM
same,TGI,SR leukemia,1.83 µM
same,TGI,SW-620 colon,1.46 µM
same,TGI,T-47D breast,3.35 µM
same,TGI,TK-10 renal,16 µM
same,TGI,U251 CNS,> 100 µM
same,TGI,UACC-257 melanoma,1.7 µM
same,TGI,UACC-62 melanoma,1.62 µM
same,TGI,UO-31 renal,2.63 µM
COC(=O)C1=C(O)C(C(=O)OC)[C@@]2(O)[C@@H](C(=O)OC)C(c3ccc(OC(=O)/C=C/c4ccccc4)cc3)C[C@@H]1[C@@H]2C(=O)OC (some centres not stated),TGI,786-0 renal,42.5 µM
same,TGI,A498 renal,> 100 µM
same,TGI,A549 NSCLC,> 100 µM
same,TGI,ACHN renal,> 100 µM
same,TGI,BT-549 breast,60.1 µM
same,TGI,CAKI-1 renal,73 µM
same,TGI,CCRF-CEM leukemia,> 100 µM
same,TGI,COLO 205 colon,23.4 µM
same,TGI,DU-145 prostate,> 100 µM
same,TGI,EKVX NSCLC,37.7 µM
same,TGI,HCC-2998 colon,27.3 µM
same,TGI,HCT-116 colon,17.8 µM
same,TGI,HCT-15 colon,46.7 µM
same,TGI,HL-60(TB) leukemia,32.6 µM
same,TGI,HOP-62 NSCLC,> 100 µM
same,TGI,HOP-92 NSCLC,> 100 µM
same,TGI,HS 578T breast,> 100 µM
same,TGI,HT29 colon,17 µM
same,TGI,IGROV1 ovarian,> 100 µM
same,TGI,K-562 leukemia,> 100 µM
same,TGI,KM12 colon,> 100 µM
same,TGI,LOX IMVI melanoma,5.75 µM
same,TGI,M14 melanoma,30.5 µM
same,TGI,MALME-3M melanoma,> 100 µM
same,TGI,MCF7 breast,> 100 µM
same,TGI,MDA-MB-231 breast,63.6 µM
same,TGI,MDA-MB-435,> 100 µM
same,TGI,MDA-N,13.1 µM
same,TGI,NCI-H226 lung,60.1 µM
same,TGI,NCI-H23 lung,> 100 µM
same,TGI,NCI-H460 lung,7.8 µM
same,TGI,NCI-H522 lung,> 100 µM
same,TGI,NCI/ADR-RES ovarian,> 100 µM
same,TGI,OVCAR-3 ovarian,94 µM
same,TGI,OVCAR-4 ovarian,> 100 µM
same,TGI,OVCAR-5 ovarian,30.2 µM
same,TGI,OVCAR-8 ovarian,> 100 µM
same,TGI,PC-3 prostate,> 100 µM
same,TGI,RXF 393 renal,19.1 µM
same,TGI,SF-268 CNS,> 100 µM
same,TGI,SF-295 CNS,> 100 µM
same,TGI,SF-539 CNS,8.86 µM
same,TGI,SK-MEL-2 melanoma,21.9 µM
same,TGI,SK-MEL-28 melanoma,> 100 µM
same,TGI,SK-MEL-5 melanoma,28.8 µM
same,TGI,SK-OV-3 ovarian,> 100 µM
same,TGI,SN12C renal,27.3 µM
same,TGI,SNB-19 CNS,> 100 µM
same,TGI,SNB-75 CNS,> 100 µM
same,TGI,SR leukemia,22.5 µM
same,TGI,SW-620 colon,> 100 µM
same,TGI,T-47D breast,> 100 µM
same,TGI,TK-10 renal,33.6 µM
same,TGI,U251 CNS,28.5 µM
same,TGI,UACC-257 melanoma,25.4 µM
same,TGI,UACC-62 melanoma,22.6 µM
same,TGI,UO-31 renal,25.5 µM
